System: aP2 mRNA
Test: aP2 mRNA expression in differentiated 3T3-L1 adipocytes (Light Cycler)
Format: cell-based
Conditions: 3T3-L1, 7 days after differentiation induction, non-treatment control = 100, average ± standard error
Protocol: Differentiation Induction Medium (0.25 μM DEX, 0.5 mM MIX, 10 μg/mL Insulin/10% FBS/DMEM)
55 mL of FBS (fetal bovine serum (manufactured by GIBCO)) was added to 500 mL of DMEM (manufactured by SIGMA) so as to prepare 10% FBS/DMEM. To this 10% FBS/DMEM, 138.75 μL of 1 mM DEX (dexamethasone)/DMSO (manufactured by Nacalai Tesque, Inc.) and 555 μL of 10 mg/mL insulin/PBS (manufactured by SIGMA) were added. Incidentally, the insulin/PBS was obtained by adding 1N HCl to PBS in advance so as to make the solution acidic enough to allow insulin dissolution and then dissolving insulin. […]
Next, culture preadipocytes 3T-L1 were thawed, inoculated in a 100 mm dish and cultured until 3T3-L 1 cells reached about 80% confluence. […] 7 days after the initiation of the differentiation induction, mRNA was extracted using Sepasol(R)—RNA I super (manufactured by Nacalai Tesque, Inc.), and the mRNA expression amounts of 36B4, aP2 and adiponectin, which were indicators of an early period of adipocyte differentiation, were measured using Light Cycler™. Also, the medium 7 days after the differentiation induction was taken in an amount of 1 mL from each well, and the amount of adiponectin in the medium supernatant was measured using a mouse/rat adiponectin ELISA kit (trade name) (manufactured by Otsuka Pharmaceutical Co., Ltd.). […]

CC(C)=CCC/C(C)=C/COc1ccc2ccc(=O)oc2c1 [Aurapten, aurapten]
aP2 mRNA expression amount (ratio to 36B4) (aurapten 1 μM): 208.2 ± 23.4 | aP2 mRNA expression amount (ratio to 36B4) (aurapten 5 μM): 202.7 ± 19.3

Source: patent US8802723B2, “Metabolic syndrome-improving agent and medicine, supplement, functional food and food additive containing the same” (ARKRAY, Inc., priority 2005, dated 2014)
